Two compounds from US4737362A, “Hair treatment composition” (Suntory Limited, priority 1983, dated 1988) can be followed below.

The target of the assay is testosterone 5α-reductase. Briefly: 5α-reductase inhibitory activity (conversion of radiolabelled testosterone to 5α-dihydrotestosterone, microsomal enzyme specimen). As to conditions: rat prostate microsomes; pH 6.6; 25° C.; 60 minutes; 8.5 pmol labelled testosterone. It is filed as biochemical, rats. As to the method:
The 5α-reductase inhibitory activity was determined as follows.
Prostate gland cells of rats were crushed and a specimen of testosterone 5α-reductase was then prepared by separating microsome from the crushed liquid mixture. The conversion of the testosterone to 5α-dihydrotestosterone by the use of the above-prepared enzyme specimen was monitored by radioisotopically labelled testosterone. The reaction mixture was extracted with ethyl acetate and the extract was developed twice by silica gel thin layer chromatography (solvent system, dichloromethane:cyclohexane:acetone=15:4:1). The amount of 5α-dihydrotestosterone was determined from the intensities of the radioactivity.
A 30 μl amount of a 0.05 M phosphate buffer (pH=6.6), 10 μl of an enzyme specimen, 8.5 pmol of labelled testosterone, 50 nmol of a reduced form of NADP (nicotinamide adenine dinucleotide phosphate), and 10 μl of a test sample were mixed (final volume […]). The mixture was incubated at a temperature of 25° C. for 60 minutes.
The reaction was stopped by the addition of 100 μl of ethyl acetate, and the reaction mixture was extracted by vigorous shaking. The extract was developed in the same manner as mentioned above, and the intensity of the radioisotope was measured by using a scintillation counter.
The above-mentioned determination was applied to samples having various concentrations. […]

Regarding `CCCCCCCCCCCCCCCCCC(=O)O` [Stearic acid], the midpoint of inhibition, the IC50, lay at 1300 µM.
Next, `CC/C=C\C/C=C\C/C=C\CCCCCCCC(=O)O` [Linolenic acid]: 1600 µM.
